Assay [1] has as its target MERS-CoV 3CLpro (Middle East respiratory syndrome-related coronavirus, UniProt K9N7C7). The assay can be described thus: biochemical.
For assay [2], the target named is HCoV-229E 3CLpro (Human coronavirus 229E, UniProt P0C6X1). Put plainly: HCoV-229E 3CLpro inhibition assay (FRET). Type of assay: biochemical.
Assay [3] addresses SARS-CoV 3CLpro (Severe acute respiratory syndrome coronavirus, UniProt P0C6X7). Put plainly: biochemical.
Assay [4] concerns the target SARS-CoV-2 3CLpro (Severe acute respiratory syndrome coronavirus 2, UniProt P0DTD1). Put plainly: biochemical.

MERS-CoV 3CLpro, sequence (K9N7C7 3248-3553): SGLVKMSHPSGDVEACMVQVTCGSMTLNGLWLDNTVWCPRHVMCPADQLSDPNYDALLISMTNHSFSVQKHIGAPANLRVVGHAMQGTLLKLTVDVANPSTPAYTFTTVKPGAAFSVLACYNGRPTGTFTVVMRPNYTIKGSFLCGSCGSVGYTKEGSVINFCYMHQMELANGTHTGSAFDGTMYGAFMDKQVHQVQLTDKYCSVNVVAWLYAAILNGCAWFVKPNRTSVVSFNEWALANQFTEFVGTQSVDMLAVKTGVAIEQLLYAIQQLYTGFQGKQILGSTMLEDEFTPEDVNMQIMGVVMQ
HCoV-229E 3CLpro, sequence (P0C6X1 2966-3267): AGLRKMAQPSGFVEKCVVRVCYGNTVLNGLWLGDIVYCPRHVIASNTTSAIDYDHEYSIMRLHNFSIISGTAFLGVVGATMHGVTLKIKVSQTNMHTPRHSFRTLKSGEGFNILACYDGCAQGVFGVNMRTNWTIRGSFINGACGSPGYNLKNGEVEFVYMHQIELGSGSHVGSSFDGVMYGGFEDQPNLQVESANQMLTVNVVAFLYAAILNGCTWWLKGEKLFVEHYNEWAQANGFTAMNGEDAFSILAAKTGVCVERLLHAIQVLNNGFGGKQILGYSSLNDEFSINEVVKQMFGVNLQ

One may read the IC50 as the point on the concentration scale where inhibition reaches its midpoint. A high value points to lower potency. Regarding `CC[C@H](C)[C@H](NC(=O)C1CC1)C(=O)N1C[C@@H]2CCC[C@@H]2[C@H]1C(=O)NN(C[C@@H]1CCNC1=O)C(=O)[C@H](F)Cl` [Example 37, N-[(1S,2S)-1-[(3S,3aS,6aR)-3-[[[(2R)-2-chloro-2-fluoro-acetyl]-[[(3S)-2-oxopyrrolidin-3-yl]methyl]amino]carbamoyl]-3,3a,4,5,6,6a-hexahydro-1H-cyclopenta[c]pyrrole-2-carbonyl]-2-methyl-butyl]cyclopropanecarboxamide], the concentration for half-maximal inhibition (IC50) was 76 nM in assay [1], 29 nM in assay [2], 11 nM in assay [3] and 9 nM in assay [4].
On to `CC[C@@H](C)[C@H](NC(=O)C(F)F)C(=O)N1C[C@H]2[C@@H]([C@H]1C(=O)NN(C[C@@H]1CCNC1=O)C(=O)[C@@H](F)Cl)C2(C)C` [Example 120, N-[(1S,2R)-1-[(1R,2S,5S)-2-[[[(2S)-2-chloro-2-fluoro-acetyl]-[[(3S)-2-oxopyrrolidin-3-yl]methyl]amino]carbamoyl]-6,6-dimethyl-3-azabicyclo[3.1.0]hexane-3-carbonyl]-2-methyl-butyl]-2,2-difluoro-acetamide], for which the IC50 in assay [1] is 98 nM; in assay [2], 38 nM; in assay [3], 34 nM; in assay [4], 19 nM.
In the case of `CC[C@H](NC(=O)C(F)(F)F)C(=O)N1C[C@@H]2CCC[C@@H]2[C@H]1C(=O)NN(C[C@@H]1CCNC1=O)C(=O)[C@H](F)Cl` [Example 72, N-[(1S)-1-[(3S,3aS,6aR)-3-[[[(2R)-2-chloro-2-fluoro-acetyl]-[[(3S)-2-oxopyrrolidin-3-yl]methyl]amino]carbamoyl]-3,3a,4,5,6,6a-hexahydro-1H-cyclopenta[c]pyrrole-2-carbonyl]propyl]-2,2,2-trifluoro-acetamide], the IC50 in assay [1] was 58 nM; in assay [2], 23 nM; in assay [3], 11 nM; in assay [4] it was 8 nM.
Regarding `CC(C)(C)[C@H](NC(=O)C(F)(F)C(F)(F)F)C(=O)N1C[C@H]2[C@@H]([C@H]1C(=O)NN(C[C@@H]1CCNC1=O)C(=O)[C@H](F)Cl)C2(C)C` [Example 22, N-[(1S)-1-[(1R,2S,5S)-2-[[[(2R)-2-chloro-2-fluoro-acetyl]-[[(3S)-2-oxopyrrolidin-3-yl]methyl]amino]carbamoyl]-6,6-dimethyl-3-azabicyclo[3.1.0]hexane-3-carbonyl]-2,2-dimethyl-propyl]-2,2,3,3,3-pentafluoro-propanamide], the IC50 in assay [1] came out at 183 nM; in assay [2], 76 nM; in assay [3] it was 31 nM; in assay [4] it was 8 nM.
For the molecule `CC(C)(C)[C@H](NC(=O)C(F)(F)F)C(=O)N1C[C@@H]2CC[C@@H]2[C@H]1C(=O)NN(C[C@@H]1CCNC1=O)C(=O)[C@H](F)Cl` [Example 5, N-[(1S)-1-[(1S,2S,5R)-2-[[[(2R)-2-chloro-2-fluoro-acetyl]-[[(3S)-2-oxopyrrolidin-3-yl]methyl]amino]carbamoyl]-3-azabicyclo[3.2.0]heptane-3-carbonyl]-2,2-dimethyl-propyl]-2,2,2-trifluoro-acetamide], the IC50 in assay [1] worked out at 303 nM; in assay [2] it was 104 nM; in assay [3], 19 nM; in assay [4], 10 nM.
Turning to `CC(C)(C)[C@H](NC(=O)C(F)(F)F)C(=O)N1C[C@@H]2C[C@@H]2[C@H]1C(=O)NN(C[C@@H]1CCNC1=O)C(=O)[C@H](F)Cl` [Example 9, N-[(1S)-1-[(1S,2S,5R)-2-[[[(2R)-2-chloro-2-fluoro-acetyl]-[[(3S)-2-oxopyrrolidin-3-yl]methyl]amino]carbamoyl]-3-azabicyclo[3.1.0]hexane-3-carbonyl]-2,2-dimethyl-propyl]-2,2,2-trifluoro-acetamide], the IC50 came to 2780 nM in assay [1], 939 nM in assay [2], 38 nM in assay [3] and 12 nM in assay [4].
In the case of `CC[C@H](C)[C@H](NC(=O)C1(F)CCC1)C(=O)N1C[C@H]2[C@@H]([C@H]1C(=O)NN(C[C@@H]1CCNC1=O)C(=O)[C@H](F)Cl)C2(C)C` [Example 105, N-[(1S,2S)-1-[(1R,2S,5S)-2-[[[(2R)-2-chloro-2-fluoro-acetyl]-[[(3S)-2-oxopyrrolidin-3-yl]methyl]amino]carbamoyl]-6,6-dimethyl-3-azabicyclo[3.1.0]hexane-3-carbonyl]-2-methyl-butyl]-1-fluoro-cyclobutanecarboxamide], the IC50 in assay [1] worked out at 71 nM; in assay [2], 27 nM; in assay [3], 11 nM; in assay [4], 8 nM.
`CC(C)(C)[C@H](NC(=O)C(F)(F)F)C(=O)N1C[C@@H]2CCC[C@@H]2[C@H]1C(=O)NN(C[C@@H]1CCCNC1=O)C(=O)[C@H](F)Cl` [Example 164a, N-[(1S)-1-[(3S,3aS,6aR)-3-[[[(2R)-2-chloro-2-fluoro-acetyl]-[[(3S)-2-oxo-3-piperidyl]methyl]amino]carbamoyl]-3,3a,4,5,6,6a-hexahydro-1H-cyclopenta[c]pyrrole-2-carbonyl]-2,2-dimethyl-propyl]-2,2,2-trifluoro-acetamide]: the IC50 in assay [1] was 243 nM; in assay [2], 98 nM; in assay [3] it was 16 nM; in assay [4] it was 8 nM.
As to `CC(C)(C)[C@H](NC(=O)C(F)(F)F)C(=O)N1C[C@@H]2CCC[C@@H]2[C@H]1C(=O)NN(C[C@@H]1CCNC1=O)C(=O)[C@@H](F)Cl` [Example 102, N-[(1S)-1-[(3S,3aS,6aR)-3-[[[(2S)-2-chloro-2-fluoro-acetyl]-[[(3S)-2-oxopyrrolidin-3-yl]methyl]amino]carbamoyl]-3,3a,4,5,6,6a-hexahydro-1H-cyclopenta[c]pyrrole-2-carbonyl]-2,2-dimethyl-propyl]-2,2,2-trifluoro-acetamide], the IC50 amounted to 207 nM in assay [1], 112 nM in assay [2], 16 nM in assay [3] and 12 nM in assay [4].
`CC[C@H](C)[C@H](NC(=O)C1CC(F)(F)C1)C(=O)N1C[C@@H]2CCC[C@@H]2[C@H]1C(=O)NN(C[C@@H]1CCNC1=O)C(=O)[C@H](F)Cl` [Example 126, N-[(1S,2S)-1-[(3S,3aS,6aR)-3-[[[(2R)-2-chloro-2-fluoro-acetyl]-[[(3S)-2-oxopyrrolidin-3-yl]methyl]amino]carbamoyl]-3,3a,4,5,6,6a-hexahydro-1H-cyclopenta[c]pyrrole-2-carbonyl]-2-methyl-butyl]-3,3-difluoro-cyclobutanecarboxamide]: the IC50 in assay [1] was 68 nM; in assay [2] it was 28 nM; in assay [3] it was 11 nM; in assay [4] it was 10 nM.
As to `CC[C@H](C)[C@H](NC(=O)C1(F)CC1)C(=O)N1C[C@H]2[C@@H]([C@H]1C(=O)NN(C[C@@H]1CCCNC1=O)C(=O)[C@H](F)Cl)C2(C)C` [Example 166a, N-[(1S,2S)-1-[(1R,2S,5S)-2-[[[(2R)-2-chloro-2-fluoro-acetyl]-[[(3S)-2-oxo-3-piperidyl]methyl]amino]carbamoyl]-6,6-dimethyl-3-azabicyclo[3.1.0]hexane-3-carbonyl]-2-methyl-butyl]-1-fluoro-cyclopropanecarboxamide], the IC50 in assay [1] was 229 nM; in assay [2] it was 47 nM; in assay [3], 18 nM; in assay [4] it was 13 nM.
As to `CC[C@@H](C)[C@H](NC(=O)C1CC1(F)F)C(=O)N1C[C@H]2[C@@H]([C@H]1C(=O)NN(C[C@@H]1CCNC1=O)C(=O)[C@H](F)Cl)C2(C)C` (mixture of isomers) [Example 113, Rac-2,2-difluoro-N-[(1S,2R)-2-methyl-1-[(1R,2S,5S)-6,6-dimethyl-2-[[[(2R)-2-chloro-2-fluoro-acetyl]-[[(3S)-2-oxopyrrolidin-3-yl]methyl]amino]carbamoyl]-3-azabicyclo[3.1.0]hexane-3-carbonyl]butyl]cyclopropanecarboxamide], the IC50 in assay [1] was 79 nM; in assay [2] it was 23 nM; in assay [3] it was 15 nM; in assay [4], 10 nM.
Regarding `CC[C@H](C)[C@H](NC(=O)C(Cl)Cl)C(=O)N1C[C@H]2[C@@H]([C@H]1C(=O)NN(C[C@@H]1CCNC1=O)C(=O)[C@H](F)Cl)C2(C)C` [Example 61, 2,2-dichloro-N-[(1S,2S)-1-[(1R,2S,5S)-2-[[[(2R)-2-chloro-2-fluoro-acetyl]-[[(3S)-2-oxopyrrolidin-3-yl]methyl]amino]carbamoyl]-6,6-dimethyl-3-azabicyclo[3.1.0]hexane-3-carbonyl]-2-methyl-butyl]acetamide], the IC50 in assay [1] was found to be 121 nM; in assay [2], 30 nM; in assay [3] it was 11 nM; in assay [4] it was 8 nM.
In the same order, the values of `CC(C)(C)[C@H](NC(=O)C(F)(F)F)C(=O)N1C[C@H]2[C@@H]([C@H]1C(=O)NN(C[C@@H]1CCCNC1=O)C(=O)[C@H](F)Cl)C2(C)C` (single isomer, unassigned) [Example 163b] are 469 nM, 104 nM, 33 nM and 17 nM.
On to `CC(C)(C)[C@H](NC(=O)C12CC(C1)C2)C(=O)N1C[C@H]2[C@@H]([C@H]1C(=O)NN(C[C@@H]1CCNC1=O)C(=O)[C@H](F)Cl)C2(C)C` [Example 15, N-[(1S)-1-[(1R,2S,5S)-2-[[[(2R)-2-chloro-2-fluoro-acetyl]-[[(3S)-2-oxopyrrolidin-3-yl]methyl]amino]carbamoyl]-6,6-dimethyl-3-azabicyclo[3.1.0]hexane-3-carbonyl]-2,2-dimethyl-propyl]bicyclo[1.1.1]pentane-1-carboxamide], for which the IC50 in assay [1] was found to be 204 nM; in assay [2], 55 nM; in assay [3] it was 26 nM; in assay [4], 8 nM.

For the origin of these results see US20250059171A1 (Hoffmann-La Roche Inc., priority 2021, published 2025).
